Molecular target: T1, KDM7A (Homo sapiens, UniProt Q6ZMT4)
T1 construct: isolated enzyme
T1 sequence (Q6ZMT4 1-941): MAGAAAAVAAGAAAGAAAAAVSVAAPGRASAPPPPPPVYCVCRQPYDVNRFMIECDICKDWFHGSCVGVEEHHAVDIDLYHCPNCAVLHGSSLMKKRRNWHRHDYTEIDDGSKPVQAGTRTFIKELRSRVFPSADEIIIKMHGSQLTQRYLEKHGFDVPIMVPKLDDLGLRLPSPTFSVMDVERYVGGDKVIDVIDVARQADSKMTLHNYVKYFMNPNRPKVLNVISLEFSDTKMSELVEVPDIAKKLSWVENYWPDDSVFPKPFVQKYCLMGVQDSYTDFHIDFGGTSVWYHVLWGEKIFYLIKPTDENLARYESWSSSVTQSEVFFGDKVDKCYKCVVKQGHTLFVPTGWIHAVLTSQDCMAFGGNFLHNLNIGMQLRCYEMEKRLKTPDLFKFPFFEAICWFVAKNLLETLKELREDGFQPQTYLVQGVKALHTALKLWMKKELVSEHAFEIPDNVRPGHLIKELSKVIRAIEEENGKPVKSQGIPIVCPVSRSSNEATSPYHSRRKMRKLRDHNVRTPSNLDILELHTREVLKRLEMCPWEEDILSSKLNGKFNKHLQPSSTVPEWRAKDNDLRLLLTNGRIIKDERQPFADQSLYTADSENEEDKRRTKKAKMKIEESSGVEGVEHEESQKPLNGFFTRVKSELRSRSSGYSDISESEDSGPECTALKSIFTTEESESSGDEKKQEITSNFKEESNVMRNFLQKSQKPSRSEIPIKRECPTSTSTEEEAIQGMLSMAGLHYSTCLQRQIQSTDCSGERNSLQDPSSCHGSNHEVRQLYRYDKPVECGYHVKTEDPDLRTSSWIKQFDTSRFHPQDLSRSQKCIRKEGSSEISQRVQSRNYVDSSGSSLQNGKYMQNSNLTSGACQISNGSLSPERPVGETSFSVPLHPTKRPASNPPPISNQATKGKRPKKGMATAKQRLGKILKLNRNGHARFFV
Assay: AlphaScreen demethylase assay
Assay type: biochemical

IC50: 190 nM
SMILES: CC(=O)N1c2ccccc2[C@@](C#N)(c2ccccc2)[C@@H]1c1cncc(CCCCCCCN2CCCC2)c1 [(S,S)-6]
